Experimental data reported in patent US9416111B2, “Substituted diazine and triazine spleen tyrosine kinease (Syk) inhibitors” (Merck Sharp & Dohme Corp., priority 2012, dated 2016).

What follows are molecules tested against T1, recombinant human GST-SYK (Homo sapiens, UniProt P43405) (assay: Homogeneous Time-Resolved Fluorescence (HTRF) assay for the recombinant human Syk enzyme). Conditions: GST-hSYK 5 pM, ATP 25 μM, IC50 rated in classes, read-out: rhSYK Activity.
T1 construct: purchased Carna Biosciences 08-176
Assay type: biochemical
Experimental: Homogeneous Time-Resolved Fluorescence (HTRF) Assay for the Recombinant Human Syk Enzyme
A recombinant GST-hSYK fusion protein was used to measure potency of compounds to inhibit human Syk activity. The recombinant human GST-SYK (Carna Biosciences #08-176) (5 pM final concentration) was incubated with various concentrations of the inhibitor diluted in DMSO (0.1% final concentration) for 10 minutes at room temperature in 15 mM Tris-HCl (pH 7.5), 0.01% tween 20, 2 mM DTT in 384 well plate format. To initiate the reaction the biotinylated substrate peptide (250 nM final concentration) that contains the phosphorylation site for Syk was added with magnesium (5 mM final concentration) and ATP (25 μM final concentration). Final volume of the reaction was 10 μL. Phosphorylation of the peptide was allowed to proceed for 45′ at room temperature. To quench the reaction and detect the phosphorylated product, 2 nM of a Europium-anti-phosphotyrosine antibody (Perkin Elmer #AD0161) and 70 nM SA-APC (Perkin-Elmer #CR130-100) were added together in 15 mM Tris pH 7.5, 40 mM EDTA, 0.01% tween 20. Final volume of the quenching solution was 10 μL. The resulting HTRF signal was measured after 30 minutes on an EnVision (Perkin-Elmer) reader using a time-resolved fluorescence protocol.

| SMILES | IC50 [nM] |
| --- | --- |
| COc1ncc(-c2cc(C)cc(Nc3nccc(C(F)(F)F)n3)c2)cn1 [Example 1.2, N-[3-(2-methoxypyrimidin-5-yl)-5-methylphenyl]-4-(trifluoromethyl)pyrimidin-2-amine] | < 100 |
| Cc1cc(Nc2nccc(C(F)(F)F)n2)cc(-c2cnc(N)nc2)c1 [Example 1.3, N-[3-(2-aminopyrimidin-5-yl)-5-methylphenyl]-4-(trifluoromethyl)pyrimidin-2-amine] | < 100 |
| COCCNc1ncc(-c2cc(C)cc(Nc3nccc(C(F)(F)F)n3)c2)cn1 [Example 1.4, N-(3-{2-[(2-methoxyethyl)amino]pyrimidin-5-yl}-5-methylphenyl)-4-(trifluoromethyl)pyrimidin-2-amine] | < 100 |
| COc1ccnc(Nc2cc(C)cc(-c3cnc(CCC(=O)O)nc3)c2)n1 [Example 1.5, 3-(5-{3-[(4-methoxypyrimidin-2-yl)amino]-5-methylphenyl}pyrimidin-2-yl)propanoic acid] | < 100 |
| CCOC(=O)CCc1ncc(-c2cc(C)cc(Nc3nccc(C4CC4)n3)c2)cn1 [Example 1.6, ethyl 3-(5-{3-[(4-cyclopropylpyrimidin-2-yl)amino]-5-methylphenyl}pyrimidin-2-yl)pronanoate] | < 100 |
| CCOC(=O)CCc1ncc(-c2cc(C)cc(Nc3nccc(C)n3)c2)cn1 [Example 1.7, ethyl 3-(5-{3-methyl-5-[(4-methylpyrimidin-2-yl)amino]phenyl}pyrimidin-2-yl)propanoate] | 100 to 1000 |
| Cc1cc(Nc2nccc(C(F)(F)F)n2)cc(-c2cnc(NC(C)(CO)CO)nc2)c1 [Example 2.1, 2-methyl-2-{[5-(3-methyl-5-{[4-(trifluoromethyl)pyrimidin-2-yl]amino}phenyl)pyrimidin-2-yl]amino}propane-1,3-diol] | < 100 |
| Cc1cc(Nc2nccc(C(F)(F)F)n2)cc(-c2cnc(NC(C)(C)C(=O)O)nc2)c1 [Example 2.2, 2-methyl-N-[5-(3-methyl-5-{[4-(trifluoromethyl)pyrimidin-2-yl]amino}phenyl)pyrimidin-2-yl]alanine] | < 100 |
| Cc1cc(Nc2nccc(C(F)(F)F)n2)cc(-c2cnc(NC3(C(=O)O)CC3)nc2)c1 [Example 2.3, 1-{[5-(3-methyl-5-{[4-(trifluoromethyl)pyrimidin-2-yl]amino}phenyl)pyrimidin-2-yl]amino}cyclopropanecarboxylic acid] | < 100 |
| Cc1cc(Nc2nccc(C(F)(F)F)n2)cc(-c2cnc(NC3(C(=O)O)CCC3)nc2)c1 [Example 2.4, l-{[5-(3-methyl-5-{[4-(trifluoromethyl)pyrimidin-2-yl]amino}phenyl)pyrimidin-2-yl]amino}cyclobutanecarboxylic acid] | < 100 |
| Cc1cc(Nc2nccc(C(F)(F)F)n2)cc(-c2cnc(N3CCC[C@H]3C(=O)O)nc2)c1 [Example 2.5, 1-[5-(3-methyl-5-{[4-(trifluoromethyl)pyrimidin-2-yl]amino}phenyl)pyrimidin-2-yl]-L-proline] | < 100 |
| Cc1cc(Nc2nccc(C(F)(F)F)n2)cc(-c2cnc(N3CC[C@H]3C(=O)O)nc2)c1 [Example 2.6, (2S)-l-[5-(3-methyl-5-{[4-(trifluoromethyl)pyrimidin-2-yl]amino}phenyl)pyrimidin-2-yl]azetidine-2-carboxylic acid] | < 100 |
| Cc1cc(Nc2nccc(C(F)(F)F)n2)cc(-c2cnc(NC3CCNC3=O)nc2)c1 (stereo not drawn) [Example 2.7, 3-{[5-(3-methyl-5-{[4-(trifluoromethyl)pyrimidin-2-yl]amino}phenyl)pyrimidin-2-yl]amino}pyrrolidin-2-one] | < 100 |

Next, values leading:

| IC50 [nM] | SMILES |
| --- | --- |
| < 100 | Cc1cc(Nc2nccc(C(F)(F)F)n2)cc(-c2cnc(NCCC(=O)O)nc2)c1 [Example 2.8, N-[5-(3-methyl-5-{[4-(trifluoromethyl)pyrimidin-2-yl]amino}phenyl)pyrimidin-2-yl]-beta-alanine] |
| < 100 | Cc1cc(Nc2nccc(C(F)(F)F)n2)cc(-c2cnc(N(C)[C@@H](C)C(=O)O)nc2)c1 [Example 2.9, N-methyl-N-[5-(3-methyl-5-{[4-(trifluoromethyl)pyrimidin-2-yl]amino}phenyl)pyrimidin-2-yl]-L-alanine] |
| < 100 | Cc1cc(Nc2nccc(C(F)(F)F)n2)cc(-c2cnc(N3CCC(O)C3)nc2)c1 (stereo not drawn) [Example 2.10, l-[5-(3-methyl-5-{[4-(trifluoromethyl)pyrimidin-2-yl]amino}phenyl)pyrimidin-2-yl]pyrrolidin-3-ol] |
| < 100 | Cc1cc(Nc2nccc(C(F)(F)F)n2)cc(-c2cnc(NCCCC(=O)O)nc2)c1 [Example 2.11, 4-{[5-(3-methyl-5-{[4-(trifluoromethyl)pyrimidin-2-yl]amino}phenyl)pyrimidin-2-yl]amino}butanoic acid] |
| < 100 | Cc1cc(Nc2nccc(C(F)(F)F)n2)cc(-c2cnc(NCC(=O)O)nc2)c1 [Example 2.12, N-[5-(3-methyl-5-{[4-(trifluoromethyl)pyrimidin-2-yl]amino}phenyl)pyrimidin-2-yl]glycine] |
| < 100 | Cc1cc(Nc2nccc(C(F)(F)F)n2)cc(-c2cnc(NCC(O)CO)nc2)c1 (stereo not drawn) [Example 2.13, 3-{[5-(3-methyl-5-{[4-(trifluoromethyl)pyrimidin-2-yl]amino}phenyl)pyrimidin-2-yl]amino}propane-1,2-diol] |
| < 100 | CCC[C@H](Nc1ncc(-c2cc(C)cc(Nc3nccc(C(F)(F)F)n3)c2)cn1)C(=O)O [Example 2.14, N-[5-(3-methyl-5-{[4-(trifluoromethyl)pyrimidin-2-yl]amino}phenyl)pyrimidin-2-yl]-L-norvaline] |
| < 100 | Cc1cc(Nc2nccc(C(F)(F)F)n2)cc(-c2cnc(NCC(O)C(F)F)nc2)c1 (stereo not drawn) [Example 2.15, 1,1-difluoro-3-{[5-(3-methyl-5-{[4-(trifluoromethyl)pyrimidin-2-yl]amino}phenyl)pyrimidin-2-yl]amino}propan-2-ol] |
| < 100 | Cc1cc(Nc2nccc(C(F)(F)F)n2)cc(-c2cnc(NC3CCS(=O)(=O)C3)nc2)c1 (stereo not drawn) [Example 2.16, N-(3-{2-[(1,1-dioxidotetrahydrothiophen-3-yl)amino]pyrimidin-5-yl}-5-methylphenyl)-4-(trifluoromethyl)pyrimidin-2-] |
| < 100 | Cc1cc(Nc2nccc(C(F)(F)F)n2)cc(-c2cnc(NCc3cnn(C)c3)nc2)c1 [Example 2.17, N-[3-methyl-5-(2-{[(1-methyl-1H-pyrazol-4-yl)methyl]amino}pyrimidin-5-yl)phenyl]-4-(trifluoromethyl)pyrimidin-2-amine] |
| < 100 | Cc1cc(Nc2nccc(C(F)(F)F)n2)cc(-c2cnc(NC3CCOC3)nc2)c1 (stereo not drawn) [Example 2.18, N-{3-methyl-5-[2-(tetrahydrofuran-3-ylamino)pyrimidin-5-yl]phenyl}-4-(trifluoromethyl)pyrimidin-2-amine] |
| < 100 | Cc1cc(Nc2nccc(C(F)(F)F)n2)cc(-c2cnc(NCC3COCCO3)nc2)c1 (stereo not drawn) [Example 2.19, N-(3-{2-[(1,4-dioxan-2-ylmethyl)amino]pyrimidin-5-yl}-5-methylphenyl)-4-(trifluoromethyl)pyrimidin-2-amine] |
| < 100 | Cc1cc(Nc2nccc(C(F)(F)F)n2)cc(-c2cnc(N3CCS(=O)(=O)CC3)nc2)c1 [Example 2.20, N-{3-[2-(1,1-dioxidothiomorpholin-4-yl)pyrimidin-5-yl]-5-methylphenyl}-4-(trifluoromethyl)pyrimidin-2-amine] |
| < 100 | Cc1cc(Nc2nccc(C(F)(F)F)n2)cc(-c2cnc(NC(C)c3ccccn3)nc2)c1 (stereo not drawn) [Example 2.21, N-(3-methyl-5-{2-[(1-pyridin-2-ylethyl)amino]pyrimidin-5-yl}phenyl)-4-(trifluoromethyl)pyrimidin-2-amine] |
| < 100 | Cc1cc(Nc2nccc(C(F)(F)F)n2)cc(-c2cnc(NCC3CCC(=O)N3)nc2)c1 (stereo not drawn) [Example 2.22, 5-({[5-(3-methyl-5-{[4-(trifluoromethyl)pyrimidin-2-yl]amino}phenyl)pyrimidin-2-yl]amino}methyl)pyrrolidin-2-one] |
| 100 to 1000 | Cc1cc(Nc2nccc(C(F)(F)F)n2)cc(-c2cnc(N3CCOC(CCO)C3)nc2)c1 (stereo not drawn) [Example 2.23, 2-{4-[5-(3-methyl-5-{[4-(trifluoromethyl)pyrimidin-2-yl]amino}phenyl)pyrimidin-2-yl]morpholin-2-yl}ethanol] |
| < 100 | Cc1cc(Nc2nccc(C(F)(F)F)n2)cc(-c2cnc(N3CCC(=O)N(C)CC3)nc2)c1 [Example 2.24, 4-methyl-1-[5-(3-methyl-5-{[4-(trifluoromethyl)pyrimidin-2-yl]amino}phenyl)pyrimidin-2-yl]-1,4-diazepan-5-one] |
| 100 to 1000 | COCC1CN(c2ncc(-c3cc(C)cc(Nc4nccc(C(F)(F)F)n4)c3)cn2)CCO1 (stereo not drawn) [Example 2.25, N-(3-{2-[2-(methoxymethyl)morpholin-4-yl]pyrimidin-5-yl}-5-methylphenyl)-4-(trifluoromethyl)pyrimidin-2-amine] |
| < 100 | Cc1cc(Nc2nccc(C(F)(F)F)n2)cc(-c2cnc(NCCS(N)(=O)=O)nc2)c1 [Example 2.26, 2-{[5-(3-methyl-5-{[4-(trifluoromethyl)pyrimidin-2-yl]amino}phenyl)pyrimidin-2-yl]amino}ethanesulfonamide] |

Same assay, conditions: GST-hSYK 5 pM, ATP 25 μM, values in text, read-out: IC50

| IC50 [nM] | SMILES |
| --- | --- |
| 17.2 | Cc1cc(Nc2nccc(C(F)(F)F)n2)cc(-c2cnc(NC(C)(CO)CO)nc2)c1 [Example 2.1, 2-methyl-2-{[5-(3-methyl-5-{[4-(trifluoromethyl)pyrimidin-2-yl]amino}phenyl)pyrimidin-2-yl]amino}propane-1,3-diol] |
